In US20230157952A1, “METHOD FOR IMPROVING THE STABILITY OF A PHARMACEUTICAL COMPOSITION COMPRISING A HIGH PENETRATION DRUG, AND THE PHARMACEUTICAL COMPOSITION OBTAINED THEREFROM” (Techfields Inc., priority 2020, published 2023):

Test: Effect of solvent on the stability of the solution (purity at various pH values and temperature)
Format: physicochemical
Settings: 7% solution

CCN(CC)CCOC(=O)c1ccccc1OC(C)=O.Cl
Purity(%) at day 0 (solvent 15% ethanol, pH 1.0, day 0): 99.1 ± 0.2% | Purity(%) at day 14 (5° C.) (solvent 15% ethanol, pH 1.0, day 14, 5° C.): 92.1 ± 0.3% | Purity(%) at day 14 (25° C.) (solvent 15% ethanol, pH 1.0, day 14, 25° C.): 62.7 ± 0.3% | Purity(%) at day 14 (40° C.) (solvent 15% ethanol, pH 1.0, day 14, 40° C.): 0% | Purity (%) at day 14 (60° C.) (solvent 15% ethanol, pH 1.0, day 14, 60° C.): 0% | Purity(%) at day 0 (solvent 15% ethanol, pH 2.0, day 0): 99.4 ± 0.2% | Purity(%) at day 14 (5° C.) (solvent 15% ethanol, pH 2.0, day 14, 5° C.): 96.5 ± 0.2% | Purity(%) at day 14 (25° C.) (solvent 15% ethanol, pH 2.0, day 14, 25° C.): 83.8 ± 0.3% | Purity(%) at day 14 (40° C.) (solvent 15% ethanol, pH 2.0, day 14, 40° C.): 0% | Purity (%) at day 14 (60° C.) (solvent 15% ethanol, pH 2.0, day 14, 60° C.): 0% | Purity(%) at day 0 (solvent 15% ethanol, pH 3.0, day 0): 99.5 ± 0.1% | Purity(%) at day 14 (25° C.) (solvent 15% ethanol, pH 3.0, day 14, 25° C.): 88.8 ± 0.2% | Purity(%) at day 14 (40° C.) (solvent 15% ethanol, pH 3.0, day 14, 40° C.): 2.9 ± 0.3% | Purity (%) at day 14 (60° C.) (solvent 15% ethanol, pH 3.0, day 14, 60° C.): 0% | Purity(%) at day 0 (solvent 15% ethanol, pH 3.7, day 0): 99.6 ± 0.1% | Purity(%) at day 14 (25° C.) (solvent 15% ethanol, pH 3.7, day 14, 25° C.): 96.2 ± 0.3% | Purity(%) at day 14 (40° C.) (solvent 15% ethanol, pH 3.7, day 14, 40° C.): 15.2 ± 0.3% | Purity (%) at day 14 (60° C.) (solvent 15% ethanol, pH 3.7, day 14, 60° C.): 0% | Purity(%) at day 0 (solvent 15% ethanol, pH 4.0, day 0): 99.7 ± 0.2% | Purity(%) at day 14 (25° C.) (solvent 15% ethanol, pH 4.0, day 14, 25° C.): 96.7 ± 0.2% | Purity(%) at day 14 (40° C.) (solvent 15% ethanol, pH 4.0, day 14, 40° C.): 15.7 ± 0.3% | Purity (%) at day 14 (60° C.) (solvent 15% ethanol, pH 4.0, day 14, 60° C.): 0% | Purity(%) at day 0 (solvent 15% ethanol, pH 4.3, day 0): 99.7 ± 0.1% | Purity(%) at day 14 (25° C.) (solvent 15% ethanol, pH 4.3, day 14, 25° C.): 96.7 ± 0.1% | Purity(%) at day 14 (40° C.) (solvent 15% ethanol, pH 4.3, day 14, 40° C.): 13.6 ± 0.3% | Purity (%) at day 14 (60° C.) (solvent 15% ethanol, pH 4.3, day 14, 60° C.): 0% | Purity(%) at day 0 (solvent 15% ethanol, pH 4.6, day 0): 99.6 ± 0.2% | Purity(%) at day 14 (25° C.) (solvent 15% ethanol, pH 4.6, day 14, 25° C.): 96.5 ± 0.2% | Purity(%) at day 14 (40° C.) (solvent 15% ethanol, pH 4.6, day 14, 40° C.): 4.1 ± 0.3% | Purity (%) at day 14 (60° C.) (solvent 15% ethanol, pH 4.6, day 14, 60° C.): 0% | Purity(%) at day 0 (solvent 15% ethanol, pH 5.0, day 0): 99.5 ± 0.2% | Purity(%) at day 14 (5° C.) (solvent 15% ethanol, pH 5.0, day 14, 5° C.): 97.4 ± 0.2% | Purity(%) at day 14 (25° C.) (solvent 15% ethanol, pH 5.0, day 14, 25° C.): 92.9 ± 0.2% | Purity(%) at day 14 (40° C.) (solvent 15% ethanol, pH 5.0, day 14, 40° C.): 1.3 ± 0.3% | Purity (%) at day 14 (60° C.) (solvent 15% ethanol, pH 5.0, day 14, 60° C.): 0% | Purity(%) at day 0 (solvent 15% ethanol, pH 6.0, day 0): 99.4 ± 0.2% | Purity(%) at day 14 (5° C.) (solvent 15% ethanol, pH 6.0, day 14, 5° C.): 92.3 ± 0.3% | Purity(%) at day 14 (25° C.) (solvent 15% ethanol, pH 6.0, day 14, 25° C.): 84.9 ± 0.3% | Purity(%) at day 14 (40° C.) (solvent 15% ethanol, pH 6.0, day 14, 40° C.): 0% | Purity (%) at day 14 (60° C.) (solvent 15% ethanol, pH 6.0, day 14, 60° C.): 0% | Purity(%) at day 0 (solvent 15% ethanol, pH 7.0, day 0): 99.2 ± 0.1% | Purity(%) at day 14 (5° C.) (solvent 15% ethanol, pH 7.0, day 14, 5° C.): 87.9 ± 0.3% | Purity(%) at day 14 (25° C.) (solvent 15% ethanol, pH 7.0, day 14, 25° C.): 60.2 ± 0.3% | Purity(%) at day 14 (40° C.) (solvent 15% ethanol, pH 7.0, day 14, 40° C.): 0% | Purity (%) at day 14 (60° C.) (solvent 15% ethanol, pH 7.0, day 14, 60° C.): 0% | Purity(%) at day 0 (solvent 15% ethanol, pH 8.0, day 0): 99.1 ± 0.2% | Purity(%) at day 14 (5° C.) (solvent 15% ethanol, pH 8.0, day 14, 5° C.): 58.7 ± 0.4% | Purity(%) at day 14 (25° C.) (solvent 15% ethanol, pH 8.0, day 14, 25° C.): 22.7 ± 0.3% | Purity(%) at day 14 (40° C.) (solvent 15% ethanol, pH 8.0, day 14, 40° C.): 0% | Purity (%) at day 14 (60° C.) (solvent 15% ethanol, pH 8.0, day 14, 60° C.): 0% | Purity(%) at day 0 (solvent 25% ethanol, pH 1.0, day 0): 99.1 ± 0.3% | Purity(%) at day 14 (5° C.) (solvent 25% ethanol, pH 1.0, day 14, 5° C.): 92.3 ± 0.3% | Purity(%) at day 14 (25° C.) (solvent 25% ethanol, pH 1.0, day 14, 25° C.): 63.5 ± 0.3% | Purity(%) at day 14 (40° C.) (solvent 25% ethanol, pH 1.0, day 14, 40° C.): 0% | Purity (%) at day 14 (60° C.) (solvent 25% ethanol, pH 1.0, day 14, 60° C.): 0% | Purity(%) at day 0 (solvent 25% ethanol, pH 2.0, day 0): 99.4 ± 0.3% | Purity(%) at day 14 (5° C.) (solvent 25% ethanol, pH 2.0, day 14, 5° C.): 96.9 ± 0.3% | Purity(%) at day 14 (25° C.) (solvent 25% ethanol, pH 2.0, day 14, 25° C.): 84.2 ± 0.3% | Purity(%) at day 14 (40° C.) (solvent 25% ethanol, pH 2.0, day 14, 40° C.): 0% | Purity (%) at day 14 (60° C.) (solvent 25% ethanol, pH 2.0, day 14, 60° C.): 0% | Purity(%) at day 0 (solvent 25% ethanol, pH 3.0, day 0): 99.5 ± 0.2% | Purity(%) at day 14 (25° C.) (solvent 25% ethanol, pH 3.0, day 14, 25° C.): 88.9 ± 0.2% | Purity(%) at day 14 (40° C.) (solvent 25% ethanol, pH 3.0, day 14, 40° C.): 2.9 ± 0.2% | Purity (%) at day 14 (60° C.) (solvent 25% ethanol, pH 3.0, day 14, 60° C.): 0% | Purity(%) at day 0 (solvent 25% ethanol, pH 3.7, day 0): 99.6 ± 0.1% | Purity(%) at day 14 (5° C.) (solvent 25% ethanol, pH 3.7, day 14, 5° C.): 99.1 ± 0.2% | Purity(%) at day 14 (25° C.) (solvent 25% ethanol, pH 3.7, day 14, 25° C.): 96.3 ± 0.2% | Purity(%) at day 14 (40° C.) (solvent 25% ethanol, pH 3.7, day 14, 40° C.): 15.1 ± 0.3% | Purity (%) at day 14 (60° C.) (solvent 25% ethanol, pH 3.7, day 14, 60° C.): 0% | Purity(%) at day 0 (solvent 25% ethanol, pH 4.0, day 0): 99.8 ± 0.1% | Purity(%) at day 14 (5° C.) (solvent 25% ethanol, pH 4.0, day 14, 5° C.): 99.1 ± 0.1% | Purity(%) at day 14 (25° C.) (solvent 25% ethanol, pH 4.0, day 14, 25° C.): 96.9 ± 0.1% | Purity(%) at day 14 (40° C.) (solvent 25% ethanol, pH 4.0, day 14, 40° C.): 15.2 ± 0.3% | Purity (%) at day 14 (60° C.) (solvent 25% ethanol, pH 4.0, day 14, 60° C.): 0% | Purity(%) at day 0 (solvent 25% ethanol, pH 4.3, day 0): 99.7 ± 0.2% | Purity(%) at day 14 (5° C.) (solvent 25% ethanol, pH 4.3, day 14, 5° C.): 99.1 ± 0.2% | Purity(%) at day 14 (25° C.) (solvent 25% ethanol, pH 4.3, day 14, 25° C.): 96.8 ± 0.2% | Purity(%) at day 14 (40° C.) (solvent 25% ethanol, pH 4.3, day 14, 40° C.): 13.8 ± 0.3% | Purity (%) at day 14 (60° C.) (solvent 25% ethanol, pH 4.3, day 14, 60° C.): 0% | Purity(%) at day 0 (solvent 25% ethanol, pH 4.6, day 0): 99.7 ± 0.2% | Purity(%) at day 14 (25° C.) (solvent 25% ethanol, pH 4.6, day 14, 25° C.): 96.5 ± 0.2% | Purity(%) at day 14 (40° C.) (solvent 25% ethanol, pH 4.6, day 14, 40° C.): 4.2 ± 0.1% | Purity (%) at day 14 (60° C.) (solvent 25% ethanol, pH 4.6, day 14, 60° C.): 0% | Purity(%) at day 0 (solvent 25% ethanol, pH 5.0, day 0): 99.6 ± 0.2% | Purity(%) at day 14 (25° C.) (solvent 25% ethanol, pH 5.0, day 14, 25° C.): 92.8 ± 0.2% | Purity(%) at day 14 (40° C.) (solvent 25% ethanol, pH 5.0, day 14, 40° C.): 1.6 ± 0.1% | Purity (%) at day 14 (60° C.) (solvent 25% ethanol, pH 5.0, day 14, 60° C.): 0% | Purity(%) at day 0 (solvent 25% ethanol, pH 6.0, day 0): 99.5 ± 0.3% | Purity(%) at day 14 (5° C.) (solvent 25% ethanol, pH 6.0, day 14, 5° C.): 92.7 ± 0.2% | Purity(%) at day 14 (25° C.) (solvent 25% ethanol, pH 6.0, day 14, 25° C.): 85.0 ± 0.3% | Purity(%) at day 14 (40° C.) (solvent 25% ethanol, pH 6.0, day 14, 40° C.): 0% | Purity (%) at day 14 (60° C.) (solvent 25% ethanol, pH 6.0, day 14, 60° C.): 0% | Purity(%) at day 0 (solvent 25% ethanol, pH 7.0, day 0): 99.4 ± 0.3% | Purity(%) at day 14 (5° C.) (solvent 25% ethanol, pH 7.0, day 14, 5° C.): 88.0 ± 0.3% | Purity(%) at day 14 (25° C.) (solvent 25% ethanol, pH 7.0, day 14, 25° C.): 61.2 ± 0.3% | Purity(%) at day 14 (40° C.) (solvent 25% ethanol, pH 7.0, day 14, 40° C.): 0% | Purity (%) at day 14 (60° C.) (solvent 25% ethanol, pH 7.0, day 14, 60° C.): 0% | Purity(%) at day 0 (solvent 25% ethanol, pH 8.0, day 0): 99.1 ± 0.3% | Purity(%) at day 14 (5° C.) (solvent 25% ethanol, pH 8.0, day 14, 5° C.): 59.8 ± 0.3% | Purity(%) at day 14 (25° C.) (solvent 25% ethanol, pH 8.0, day 14, 25° C.): 23.1 ± 0.3% | Purity(%) at day 14 (40° C.) (solvent 25% ethanol, pH 8.0, day 14, 40° C.): 0%
